Laboratory results taken from article PMC10054465, “Design, Synthesis, and Antiviral Activities of New Benzotriazole-Based Derivatives” (Pharmaceuticals, 2023).
Read-outs that look alike come from different tables or passages of the source.

How the values were obtained:
RSV = assay: microbe, parasite or virus in culture; format: cell-based; settings: human respiratory syncytial virus, Vero 76, read-out: RSV EC50
HSV-1 = assay: microbe, parasite or virus in culture; format: cell-based, human herpesvirus 1; settings: Human alphaherpesvirus 1, Vero 76, read-out: HSV-1 EC50
[1] = Cytotoxicity in mock-infected BHK-21 monolayers (MTT); settings: Syrian hamster (Mesocricetus auratus)
[2] = Cytotoxicity in mock-infected MDBK cells (MTT); settings: cattle (Bos taurus)
VSV = assay: microbe, parasite or virus in culture; format: cell-based; settings: Vesicular stomatitis virus, Vero 76, read-out: VSV EC50
BVDV = assay: microbe, parasite or virus in culture; format: cell-based; settings: Bovine viral diarrhea virus isolates and strains, MDBK
VV = assay: microbe, parasite or virus in culture; format: cell-based; settings: Orthopoxvirus vaccinia, Vero 76, read-out: VV EC50
CVB5 = assay: microbe, parasite or virus in culture; format: cell-based, human enterovirus B (coxsackievirus B5); settings: for EC50: Enterovirus B, CVB5, Vero 76, read-out: CVB5 EC50
Sb-1 = assay: microbe, parasite or virus in culture; format: cell-based, human enterovirus C (poliovirus type-1); settings: Enterovirus C, Vero 76, read-out: Sb-1 EC50
[3] = Cytotoxicity in mock-infected Vero-76 monolayers; settings: African green monkey (Cercopithecus aethiops)
YFV = assay: microbe, parasite or virus in culture; format: cell-based; settings: Yellow fever virus, BHK-21, read-out: YFV EC50
Reo-1 = assay: microbe, parasite or virus in culture; format: cell-based, Reovirus type-1; settings: Reovirus sp., BHK-21, read-out: Reo-1 EC50
[4] = BHK-21 cell monolayers, mock-infected
[5] = Vero-76 cell monolayers, mock-infected

Row | Structure (SMILES) | melting point [°C] | EC50 (RSV) [µM] | EC50 (HSV-1) [µM] | CC50 [1, 4] [µM] | CC50 ([2]; mock-infected) [µM] | EC50 (VSV) [µM] | EC50 (BVDV; read-out: BVDV EC50) [µM] | EC50 (CVB5) [µM] | EC50 (Sb-1) [µM] | CC50 [3, 5] [µM] | EC50 (YFV) [µM] | also measured
1 | CCCCNC(=O)Nc1ccc(Cn2nnc3cc(F)c(F)cc32)cc1 | 193 to 194 |  |  |  |  |  |  |  |  |  |  | 
2 | COc1ccc(C(=O)Nc2ccc(Cn3nnc4c(F)cccc43)cc2)cc1 | 266 to 268 |  |  |  |  |  |  |  |  |  |  | 
3 | Cc1cc2nn(Cc3cccc(NC(=O)c4ccc(Cl)cc4)c3)nc2cc1C | 246 to 247 |  |  |  |  |  |  |  |  |  |  | 
4 | N#Cc1ccc(C(=O)Nc2cccc(Cn3nnc4cc(Cl)c(Cl)cc43)c2)cc1 | 167 to 169 |  |  |  |  |  |  |  |  |  |  | 
5 | CCNC(=O)Nc1cccc(Cn2nnc3cc(Cl)c(Cl)cc32)c1 | 244 to 245 |  |  |  |  |  |  |  |  |  |  | 
6 | COc1ccc(NC(=O)Nc2cccc(Cn3nnc4cc(C)c(C)cc43)c2)cc1 | 233 to 235 |  |  |  |  |  |  |  |  |  |  | 
7 | Cc1cc2nnn(Cc3ccc(NC(=O)c4ccc([N+](=O)[O-])cc4)cc3)c2cc1C | 192 to 194 |  |  |  |  |  |  |  |  |  |  | 
8 | CCCNC(=O)Nc1ccc(Cn2nnc3cc(Cl)c(Cl)cc32)cc1 | 213 to 214 |  |  |  |  |  |  |  |  |  |  | 
9 | Nc1cccc(Cn2nnc3cc(Cl)c(Cl)cc32)c1 [6a] | 161 to 162 | > 100 | > 100 | 57 | > 100 | > 100 | > 100 | 52 ± 3.6 | > 100 | > 100 |  | EC50 (VV): 62.5 ± 16.2 µM
10 | O=c1cnn([C@@H]2O[C@H](CO)[C@@H](O)[C@H]2O)c(=O)[nH]1 [6az-ur, 6-azauridine, reference compound] |  | 1.1 ± 0.4 |  | > 100 |  |  |  |  |  | 9.3 ± 1.6 | 46 ± 2.5 | 
11 | Cc1cc2nn(Cc3ccc(N)cc3)nc2cc1C [11b] | 169 to 171 | > 100 | > 100 | > 100 | > 100 | > 100 | > 100 | 6 | > 100 | > 100 | > 100 | EC50 (Reo-1): > 100 µM; EC50 (VV): > 100 µM
12 | Nc1ccc(Cn2nc3cc(F)c(F)cc3n2)cc1 [11d] | 149 to 150 | > 100 | > 100 | > 100 | > 100 | > 100 | > 100 | 7.6 ± 1.9 | > 100 | > 100 | > 100 | EC50 (Reo-1): > 100 µM; EC50 (VV): > 100 µM
13 | Cc1cc2nnn(Cc3ccc(N)cc3)c2cc1C [12b] | 184 to 186 |  |  |  |  |  |  | 100 |  |  |  | 
14 | Nc1ccc(Cn2nnc3c(F)cccc32)cc1 [12e] | 164 to 167 |  |  |  |  |  |  | 100 |  |  |  | 
15 | COc1cc(C(=O)Nc2ccc(Cn3nnc4c(F)cccc43)cc2)cc(OC)c1OC [21e] | 177 to 179 | 20 ± 2 | > 100 | 60 | 72 | > 100 |  | > 100 | > 100 | > 100 |  | EC50 (VV): > 100 µM
16 | Cc1cc2nn(Cc3cccc(NC(=O)c4ccc(F)cc4)c3)nc2cc1C [25b] | 211 to 212 | > 100 | > 100 | > 100 | > 100 | > 100 | > 100 | 47 ± 2.2 | > 100 | > 100 | > 100 | EC50 (Reo-1): > 100 µM; EC50 (VV): > 100 µM
17 | CCCCNC(=O)Nc1cccc(Cn2nc3cc(C)c(C)cc3n2)c1 [32b] | 288 to 289 | > 100 | > 100 | > 100 | > 100 | > 100 |  | > 100 | 85 | > 100 | > 100 | EC50 (Reo-1): > 100 µM; EC50 (VV): > 100 µM
18 | CC(=O)Nc1cccc(Cn2nnc3cc(Cl)c(Cl)cc32)c1 [35a] |  |  |  |  |  |  |  |  |  |  |  | antiviral activity (in words) (CVB5): no antiviral activity
19 | CCC(=O)Nc1cccc(Cn2nnc3cc(Cl)c(Cl)cc32)c1 [36a] | 145 to 146 |  |  |  |  |  |  |  |  |  |  | antiviral activity (in words) (CVB5): no antiviral activity
20 | COc1cc(C(=O)Nc2cccc(Cn3nnc4cc(Cl)c(Cl)cc43)c2)cc(OC)c1OC [41a] | 142 to 144 | > 10.5 | > 100 | > 100 | > 100 | > 100 | > 100 | 18.5 ± 2.1 | > 100 | > 100 | > 100 | CC50 ([1]; BHK-21 cells): 7 µM; EC50 (Reo-1): > 7 µM; EC50 (VV): > 100 µM; CC50 ([3]; Vero-76 cells): 10.5 µM
21 | COc1cc(C(=O)Nc2cccc(Cn3nnc4cc(C)c(C)cc43)c2)cc(OC)c1OC [51b] | 160 to 162 |  |  |  |  |  |  |  |  |  |  | 
22 | Cc1cc2nnn(Cc3cccc(NC(=O)c4ccc(Cl)cc4)c3)c2cc1C [53b] | 227 to 229 |  |  |  |  |  |  |  |  |  |  | 
23 | CC(=O)Nc1ccc(Cn2nnc3ccccc32)cc1 [79c] | 187 to 189 | > 9 | > 72 | 86 | 44 | > 72 | > 44 | > 72 | > 72 | 72 | > 86 | EC50 (Reo-1): > 86 µM; EC50 (VV): > 72 µM; CC50 ([3]; Vero-76 cells): 9 µM
24 | COc1ccc(C(=O)Nc2ccc(Cn3nnc4ccccc43)cc2)cc1 [86c] | 172 to 174 |  |  | 95 | 87 |  | 3 |  |  | 85 |  | 
25 | Cc1cc2nnn(Cc3ccc(NC(=O)NC4CCCCC4)cc3)c2cc1C [100b] | 216 to 218 | > 100 | > 100 | > 100 | > 100 | > 100 | > 100 | 50 | > 100 | > 100 | > 100 | EC50 (Reo-1): > 100 µM
26 | Nc1nc2c(ncn2COCCO)c(=O)[nH]1 [ACG, acycloguanosine, reference compound] |  |  | 2.4 ± 0.6 |  |  |  |  |  |  | > 100 |  | 
27 | C[C@@]1(O)[C@H](O)[C@@H](CO)O[C@H]1n1ccc(N)nc1=O [NM107, 2’-C-methylcytidine, reference compound] |  |  |  | > 100 |  |  |  |  |  |  |  | EC50 (Reo-1): 6 ± 2.1 µM
28 | C[C@@]1(O)[C@H](O)[C@@H](CO)O[C@H]1n1cnc2c(=O)[nH]c(N)nc21 [NM108, 2′-C-methyl-guanosine, reference compound] |  |  |  | > 100 | > 100 |  | 1.5 |  |  |  | 1 | 
29 | Cc1cc(CCCOc2c(C)cc(-c3noc(C(F)(F)F)n3)cc2C)on1 [Plec, pleconaril, reference compound] |  |  |  |  |  |  |  | 0.005 ± 0.002 | 2 ± 0.62 | 77 ± 6.8 |  | 
30 | NC(=O)c1ncn([C@@H]2O[C@H](CO)[C@@H](O)[C@H]2O)n1 [Ribav, ribavirin, reference compound] |  |  |  |  | 35 |  | 12 |  |  |  |  | CC50 [2]: 52 µM; EC50 (BVDV; read-out: BVDV EC50, second value after slash): 18 µM
